# What was measured:
# Settings in all cases: compound 10.0 µM
# ADRBK1 (human) = ADRBK1 (human) (UniProt P25098)
# AURKA (human) = AURKA (human) (UniProt O14965)
# AXL (human) = AXL (human) (UniProt P30530)
# BRSK1 (human) = BRSK1 (human) (UniProt Q8TDC3)
# CAMK1G (human) = CAMK1G (human) (UniProt Q96NX5)
# CDK4 CCND1 (human) = CDK4 CCND1 (human) (UniProt P11802+P24385)
# CDK5 CDK5R1 p35 (human) = CDK5 CDK5R1 p35 (human) (UniProt Q00535+Q15078)
# CDK9 CCNK (human) = CDK9 CCNK (human) (UniProt P50750+O75909)
# CLK4 (human) = CLK4 (human) (UniProt Q9HAZ1)
# CSNK1A1 (human) = CSNK1A1 (human) (UniProt P48729)
# CSNK1G1 (human) = CSNK1G1 (human) (UniProt Q9HCP0)
# CSNK2A1 (human) = CSNK2A1 (human) (UniProt P68400)
# DAPK1 (human) = DAPK1 (human) (UniProt P53355)
# DAPK3 (human) = DAPK3 (human) (UniProt O43293)
# DSTYK (human) = DSTYK (human) (UniProt Q6XUX3)
# DYRK2 (human) = DYRK2 (human) (UniProt Q92630)
# EGFR (human) = EGFR (human) (UniProt P00533)
# EPHA5 (human) = EPHA5 (human) (UniProt P54756)
# EPHB1 (human) = EPHB1 (human) (UniProt P54762)
# EPHB4 (human) = EPHB4 (human) (UniProt P54760)
# ERBB2 (human) = ERBB2 (human) (UniProt P04626)
# GSG2 (human) = GSG2 (human) (UniProt Q8TF76)
# IKBKE (human) = IKBKE (human) (UniProt Q14164)
# JAK2 JH1 JH2 (human) = JAK2 JH1 JH2 (human) (UniProt O60674)
# KDR (human) = KDR (human) (UniProt P35968)
# LCK (human) = LCK (human) (UniProt P06239)
# LIMK1 (human) = LIMK1 (human) (UniProt P53667)
# MAP3K7 (human) = MAP3K7 (human) (UniProt O43318)
# MARK4 (human) = MARK4 (human) (UniProt Q96L34)
# MKNK2 (human) = MKNK2 (human) (UniProt Q9HBH9)
# NEK4 (human) = NEK4 (human) (UniProt P51957)
# NLK (human) = NLK (human) (UniProt Q9UBE8)
# NTRK3 (human) = NTRK3 (human) (UniProt Q16288)
# PAK6 (human) = PAK6 (human) (UniProt Q9NQU5)
# PIM3 (human) = PIM3 (human) (UniProt Q86V86)
# PKN1 (human) = PKN1 (human) (UniProt Q16512)
# PRKCB2 (human) = PRKCB2 (human) (UniProt P05771)
# RPS6KB2 (human) = RPS6KB2 (human) (UniProt Q9UBS0)
# SRC (human) = SRC (human) (UniProt P12931)
# STK17A (human) = STK17A (human) (UniProt Q9UEE5)
# STK4 (human) = STK4 (human) (UniProt Q13043)
# TBK1 (human) = TBK1 (human) (UniProt Q9UHD2)
# ULK2 (human) = ULK2 (human) (UniProt Q8IYT8)
# WEE1 (human) = WEE1 (human) (UniProt P30291)
# EPHB1 (human), sequence (P54762 whole entry, looked up): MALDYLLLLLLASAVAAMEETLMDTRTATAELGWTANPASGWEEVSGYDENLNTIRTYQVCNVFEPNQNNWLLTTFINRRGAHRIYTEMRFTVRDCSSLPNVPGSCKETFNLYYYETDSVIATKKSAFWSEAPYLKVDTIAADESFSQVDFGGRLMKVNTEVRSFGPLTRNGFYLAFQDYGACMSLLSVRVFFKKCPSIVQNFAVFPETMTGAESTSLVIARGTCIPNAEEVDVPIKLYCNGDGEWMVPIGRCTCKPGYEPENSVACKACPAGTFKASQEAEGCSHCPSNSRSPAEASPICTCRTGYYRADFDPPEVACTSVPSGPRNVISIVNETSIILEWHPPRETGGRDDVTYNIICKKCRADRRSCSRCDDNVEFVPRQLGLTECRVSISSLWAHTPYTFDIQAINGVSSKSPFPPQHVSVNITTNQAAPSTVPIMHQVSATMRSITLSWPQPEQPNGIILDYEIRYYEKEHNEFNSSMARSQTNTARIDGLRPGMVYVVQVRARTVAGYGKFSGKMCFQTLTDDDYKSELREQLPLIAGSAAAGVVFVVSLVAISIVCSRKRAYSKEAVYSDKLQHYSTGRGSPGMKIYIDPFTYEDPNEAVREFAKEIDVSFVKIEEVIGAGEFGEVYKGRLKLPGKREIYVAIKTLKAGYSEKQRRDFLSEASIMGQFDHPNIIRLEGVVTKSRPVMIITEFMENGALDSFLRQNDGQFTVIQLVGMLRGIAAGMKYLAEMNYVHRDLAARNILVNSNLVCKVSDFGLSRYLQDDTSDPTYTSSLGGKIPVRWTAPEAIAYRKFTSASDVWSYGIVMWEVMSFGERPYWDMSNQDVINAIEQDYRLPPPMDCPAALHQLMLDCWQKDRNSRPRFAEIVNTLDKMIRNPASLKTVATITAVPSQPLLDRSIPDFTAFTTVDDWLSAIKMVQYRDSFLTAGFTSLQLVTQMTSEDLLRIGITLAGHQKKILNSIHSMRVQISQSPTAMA
# CSNK1G1 (human), sequence (Q9HCP0 whole entry, looked up): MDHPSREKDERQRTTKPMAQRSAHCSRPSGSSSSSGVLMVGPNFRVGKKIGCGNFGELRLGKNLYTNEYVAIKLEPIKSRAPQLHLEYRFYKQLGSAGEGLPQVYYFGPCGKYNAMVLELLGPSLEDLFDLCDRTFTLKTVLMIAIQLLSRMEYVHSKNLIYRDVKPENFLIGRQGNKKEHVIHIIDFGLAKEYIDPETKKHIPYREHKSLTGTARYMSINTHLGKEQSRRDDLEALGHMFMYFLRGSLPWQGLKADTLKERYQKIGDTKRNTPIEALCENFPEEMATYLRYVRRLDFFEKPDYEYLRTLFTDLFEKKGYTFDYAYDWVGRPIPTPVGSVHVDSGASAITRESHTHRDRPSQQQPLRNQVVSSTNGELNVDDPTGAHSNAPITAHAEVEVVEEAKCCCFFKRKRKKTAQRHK
# CSNK2A1 (human), sequence (P68400 whole entry, looked up): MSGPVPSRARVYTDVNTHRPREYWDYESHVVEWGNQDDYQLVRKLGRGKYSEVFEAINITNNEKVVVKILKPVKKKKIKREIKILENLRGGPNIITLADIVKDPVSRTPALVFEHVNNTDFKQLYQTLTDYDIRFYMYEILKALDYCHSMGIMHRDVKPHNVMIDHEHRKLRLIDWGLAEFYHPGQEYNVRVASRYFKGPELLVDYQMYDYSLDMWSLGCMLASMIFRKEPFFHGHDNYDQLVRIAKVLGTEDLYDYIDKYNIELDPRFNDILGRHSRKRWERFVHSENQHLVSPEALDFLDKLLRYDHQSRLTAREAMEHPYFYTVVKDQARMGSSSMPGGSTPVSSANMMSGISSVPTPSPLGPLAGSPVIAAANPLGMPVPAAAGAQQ
# MKNK2 (human), sequence (Q9HBH9 whole entry, looked up): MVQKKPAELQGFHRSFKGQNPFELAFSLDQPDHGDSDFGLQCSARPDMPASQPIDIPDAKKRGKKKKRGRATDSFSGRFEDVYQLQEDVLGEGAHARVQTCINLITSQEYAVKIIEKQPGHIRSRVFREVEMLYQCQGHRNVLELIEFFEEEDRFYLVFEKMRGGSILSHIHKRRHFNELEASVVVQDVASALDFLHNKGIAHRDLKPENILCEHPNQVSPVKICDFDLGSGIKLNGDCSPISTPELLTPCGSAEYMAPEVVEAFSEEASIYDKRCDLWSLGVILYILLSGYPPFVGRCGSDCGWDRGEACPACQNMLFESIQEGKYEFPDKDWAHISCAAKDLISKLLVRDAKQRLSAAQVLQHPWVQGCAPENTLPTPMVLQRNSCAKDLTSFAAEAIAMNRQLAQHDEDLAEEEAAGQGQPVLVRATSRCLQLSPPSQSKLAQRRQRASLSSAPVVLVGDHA
# BRSK1 (human), sequence (Q8TDC3 whole entry, looked up): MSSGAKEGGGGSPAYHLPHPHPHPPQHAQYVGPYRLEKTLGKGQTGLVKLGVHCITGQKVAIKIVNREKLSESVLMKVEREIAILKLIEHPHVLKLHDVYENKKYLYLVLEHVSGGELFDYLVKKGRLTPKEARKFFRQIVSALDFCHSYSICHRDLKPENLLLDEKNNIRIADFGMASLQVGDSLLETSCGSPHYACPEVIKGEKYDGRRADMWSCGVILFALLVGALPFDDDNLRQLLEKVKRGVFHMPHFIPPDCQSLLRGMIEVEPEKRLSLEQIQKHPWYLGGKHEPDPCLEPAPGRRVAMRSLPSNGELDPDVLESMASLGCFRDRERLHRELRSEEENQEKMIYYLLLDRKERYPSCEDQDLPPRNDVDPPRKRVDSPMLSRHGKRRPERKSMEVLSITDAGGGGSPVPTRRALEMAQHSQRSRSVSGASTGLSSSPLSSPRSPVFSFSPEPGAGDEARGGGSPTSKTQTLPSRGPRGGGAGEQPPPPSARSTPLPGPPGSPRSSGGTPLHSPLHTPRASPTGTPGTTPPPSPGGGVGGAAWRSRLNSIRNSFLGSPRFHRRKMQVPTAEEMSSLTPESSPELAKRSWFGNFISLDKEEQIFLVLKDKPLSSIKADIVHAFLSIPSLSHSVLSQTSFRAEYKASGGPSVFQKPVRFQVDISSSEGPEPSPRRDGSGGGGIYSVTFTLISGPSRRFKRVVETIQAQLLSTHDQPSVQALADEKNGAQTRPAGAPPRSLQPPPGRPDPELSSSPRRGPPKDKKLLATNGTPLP
# ULK2 (human), sequence (Q8IYT8 whole entry, looked up): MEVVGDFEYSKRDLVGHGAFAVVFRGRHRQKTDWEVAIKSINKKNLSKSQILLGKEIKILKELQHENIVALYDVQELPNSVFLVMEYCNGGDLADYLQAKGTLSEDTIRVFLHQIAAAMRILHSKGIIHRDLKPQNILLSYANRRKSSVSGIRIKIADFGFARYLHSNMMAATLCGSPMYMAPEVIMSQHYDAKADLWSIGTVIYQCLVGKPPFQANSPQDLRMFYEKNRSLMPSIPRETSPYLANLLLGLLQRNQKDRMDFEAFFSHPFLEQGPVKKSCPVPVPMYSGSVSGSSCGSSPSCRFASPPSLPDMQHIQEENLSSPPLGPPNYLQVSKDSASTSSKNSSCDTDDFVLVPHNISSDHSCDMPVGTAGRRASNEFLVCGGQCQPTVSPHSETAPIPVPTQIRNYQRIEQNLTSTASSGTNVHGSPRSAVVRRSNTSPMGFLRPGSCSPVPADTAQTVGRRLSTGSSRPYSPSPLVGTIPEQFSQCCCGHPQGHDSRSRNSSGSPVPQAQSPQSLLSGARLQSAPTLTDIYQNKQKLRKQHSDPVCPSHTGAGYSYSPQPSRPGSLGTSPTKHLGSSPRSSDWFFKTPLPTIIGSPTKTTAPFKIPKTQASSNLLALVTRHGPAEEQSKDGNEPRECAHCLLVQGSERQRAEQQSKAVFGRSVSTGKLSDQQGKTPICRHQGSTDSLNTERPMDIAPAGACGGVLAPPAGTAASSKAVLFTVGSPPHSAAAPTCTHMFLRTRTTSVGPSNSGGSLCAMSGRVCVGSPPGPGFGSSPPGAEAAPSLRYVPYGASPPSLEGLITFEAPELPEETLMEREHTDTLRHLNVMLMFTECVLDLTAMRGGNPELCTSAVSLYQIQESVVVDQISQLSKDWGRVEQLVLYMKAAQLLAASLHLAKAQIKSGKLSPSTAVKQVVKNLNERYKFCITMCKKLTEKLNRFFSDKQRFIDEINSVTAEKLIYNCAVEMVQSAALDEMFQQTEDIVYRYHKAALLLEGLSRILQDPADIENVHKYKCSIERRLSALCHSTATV
# IKBKE (human), sequence (Q14164 whole entry, looked up): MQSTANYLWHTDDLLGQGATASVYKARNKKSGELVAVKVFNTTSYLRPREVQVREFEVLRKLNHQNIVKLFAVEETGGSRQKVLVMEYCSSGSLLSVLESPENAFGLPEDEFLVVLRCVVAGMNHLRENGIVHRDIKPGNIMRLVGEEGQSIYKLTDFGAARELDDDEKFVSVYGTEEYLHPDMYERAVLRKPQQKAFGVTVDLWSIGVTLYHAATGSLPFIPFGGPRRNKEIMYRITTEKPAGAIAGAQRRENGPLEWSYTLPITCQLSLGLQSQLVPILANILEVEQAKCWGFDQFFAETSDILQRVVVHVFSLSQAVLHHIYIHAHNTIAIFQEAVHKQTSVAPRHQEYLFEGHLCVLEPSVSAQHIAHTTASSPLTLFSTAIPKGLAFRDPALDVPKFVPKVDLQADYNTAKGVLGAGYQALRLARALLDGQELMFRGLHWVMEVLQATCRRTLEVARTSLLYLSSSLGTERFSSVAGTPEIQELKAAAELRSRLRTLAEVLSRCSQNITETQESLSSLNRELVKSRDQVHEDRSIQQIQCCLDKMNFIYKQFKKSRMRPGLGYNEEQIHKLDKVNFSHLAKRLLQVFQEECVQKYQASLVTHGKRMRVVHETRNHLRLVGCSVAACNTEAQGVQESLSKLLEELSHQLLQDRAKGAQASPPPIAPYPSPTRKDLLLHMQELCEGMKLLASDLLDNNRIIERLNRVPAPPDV
compound,measurement,setting,value
CC[C@H](C)n1cc(C)c2c(C(=O)NCc3c(C)cc(C)[nH]c3=O)cc(-c3ccc(N4CCNCC4)nc3)cc21,residual activity,ADRBK1 (human),108%
same,residual activity,AURKA (human),88%
same,residual activity,AXL (human),103%
same,residual activity,BRSK1 (human),99.5%
same,residual activity,CAMK1G (human),84%
same,residual activity,CDK4 CCND1 (human),94.5%
same,residual activity,CDK5 CDK5R1 p35 (human),103%
same,residual activity,CDK9 CCNK (human),96.5%
same,residual activity,CLK4 (human),95.5%
same,residual activity,CSNK1A1 (human),97%
same,residual activity,CSNK1G1 (human),110%
same,residual activity,CSNK2A1 (human),110%
same,residual activity,DAPK1 (human),96.5%
same,residual activity,DAPK3 (human),106%
same,residual activity,DSTYK (human),97.5%
same,residual activity,DYRK2 (human),204%
same,residual activity,EGFR (human),96.5%
same,residual activity,EPHA5 (human),77%
same,residual activity,EPHB1 (human),90.5%
same,residual activity,EPHB4 (human),95%
same,residual activity,ERBB2 (human),100%
same,residual activity,GSG2 (human),98%
same,residual activity,IKBKE (human),94.5%
same,residual activity,JAK2 JH1 JH2 (human),91.5%
same,residual activity,KDR (human),104%
same,residual activity,LCK (human),99%
same,residual activity,LIMK1 (human),99.5%
same,residual activity,MAP3K7 (human),106%
same,residual activity,MARK4 (human),83%
same,residual activity,MKNK2 (human),98%
same,residual activity,NEK4 (human),95.5%
same,residual activity,NLK (human),95%
same,residual activity,NTRK3 (human),102%
same,residual activity,PAK6 (human),102%
same,residual activity,PIM3 (human),93.5%
same,residual activity,PKN1 (human),89%
same,residual activity,PRKCB2 (human),94%
same,residual activity,RPS6KB2 (human),92%
same,residual activity,SRC (human),83.5%
same,residual activity,STK17A (human),96.5%
same,residual activity,STK4 (human),97%
same,residual activity,TBK1 (human),105%
same,residual activity,ULK2 (human),99.5%
same,residual activity,WEE1 (human),100%

# Source: the kinase profiling compilation of Christmann-Franck et al. (2016)
